From patent US10106534B2 (CELGENE QUANTICEL RESEARCH, INC., priority 2014, dated 2018)

Legend:
JMJD2C = JMJD2C (Homo sapiens (Human), UniProt Q9H3R0); experiment: In vitro enzyme inhibition assay for JMJD2C activity (TR-FRET); type: biochemical
Protocol: This assay determines the ability of a test compound to inhibit JMJD2C demethylase activity. Baculovirus expressed JMJD2C (GenBank Accession #BC143571, AA 2-372) was purchased from BPS Bioscience (Cat#50105).
The ability of test compounds to inhibit the activity of JMJD2C was determined in 384-well plate format under the following reaction conditions: 0.3 nM JMJD2C, 300 nM H3K9me3-biotin labeled peptide (Anaspec cat #64360), 2 μM alpha-ketoglutaric acid in assay buffer of 50 mM HEPES, pH7.3, 0.005% Brij35, 0.5 mM TCEP, 0.2 mg/ml BSA, 50 μM sodium L-ascorbate, and 2 μM ammonium iron(II) sulfate. Reaction product was determined quantitatively by TR-FRET after the addition of detection reagent Phycolink Streptavidin-allophycocyanin (Prozyme) and Europium-anti-di-methylated histone H3 lysine 9 (H3K9me2) antibody (PerkinElmer) in the presence of 5 mM EDTA in LANCE detection buffer (PerkinElmer) at a final concentration of 50 nM and 1 nM, respectively.
The assay reaction was initiated by the following: 2 μl of the mixture of 900 nM H3K9me3-biotin labeled peptide and 6 μM alpha-ketoglutaric acid with 2 μl of 11-point serial diluted inhibitor in 3% DMSO were added to each well of the plate, followed by the addition of 2 μl of 0.9 nM JMJD2C to initiate the reaction. The reaction mixture was incubated at room temperature for 30 minutes, and terminated by the addition of 6 μl of 5 mM EDTA in LANCE detection buffer containing 100 nM Phycolink Streptavidin-allophycocyanin and 2 nM Europium-anti-H3K9me2 antibody. Plates were read by EnVisionMultilabel Reader in TR-FRET mode (excitation at 320 nm, emission at 615 nm and 665 nm) after 1 hour incubation at room temperature. A ratio was calculated (665/615) for each well and fitted to determine inhibition constant (IC50).

[1] = test system: KYSE-150 esophageal carcinoma cell line; experiment: In vitro cell-based assay: cellular proliferation via BrdU incorporation (ELISA); parameters: species or system human; settings: Homo sapiens, KYSE-150, 168 hours compound incubation
Protocol: The primary cellular assay for JMJD2C inhibition is an assay which measures cellular proliferation via Bromodeoxyuridine (BrdU) incorporation after 168 hours of compound incubation. Cell lines tested include the JMJD2C gene amplified cell line KYSE-150. This is a quantitative ELISA assay measuring DNA incorporation of BrdU during S-phase as a direct readout of cellular proliferation.
Assay Principle: This is a colorimetric immunoassay for the quantification of cell proliferation. Cells treated for 168 hours with test compounds are assayed for their ability to go through S-phase as a measure of their proliferative potential.
Assay Method: The human KYSE-150 (SMAD4 mut, TP53 mut) esophageal carcinoma cell line was seeded at 2,000 cells/well on a 96-well tissue culture treated plate. After an overnight incubation, cells were treated with compound in an 11-point dilution series with final concentrations ranging from 100 μM to 2 nM. Cells were then incubated in the presence of compound for 168 hours. After compound incubation the cells were assayed using a BrdU Cell Proliferation ELISA (Roche). The cells were first incubated with BrdU labeling reagent for 2 hours. After 2 hours, the BrdU incorporated cells were fixed and denatured, probed with an anti-BrdU-Peroxidase antibody for 1.5 hours and washed. Finally, a tetramethylbenzidine peroxidase substrate was added to each well for 15 minutes followed by a H2SO4 stop solution. The plate was read at 450 nm, and the raw optical density data was transferred into XLFit (IDBS) for IC50 calculation using the formula: fit=(D+((Vmax*(x^n))/((x^n)+(Km^n))))

JMJD2C, sequence (Q9H3R0 2-372): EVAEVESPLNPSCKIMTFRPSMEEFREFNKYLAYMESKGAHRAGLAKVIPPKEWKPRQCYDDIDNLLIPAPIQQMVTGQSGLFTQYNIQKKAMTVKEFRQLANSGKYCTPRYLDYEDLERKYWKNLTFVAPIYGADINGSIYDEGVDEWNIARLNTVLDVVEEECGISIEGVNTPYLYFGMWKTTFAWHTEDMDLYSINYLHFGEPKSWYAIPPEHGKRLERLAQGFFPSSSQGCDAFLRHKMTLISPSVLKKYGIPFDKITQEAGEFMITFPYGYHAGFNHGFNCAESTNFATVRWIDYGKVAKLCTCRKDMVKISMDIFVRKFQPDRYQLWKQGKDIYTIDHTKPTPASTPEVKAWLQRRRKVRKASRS

| IC50 (JMJD2C) [nM] | IC50 [1] [nM] | Structure (SMILES) |
| --- | --- | --- |
| 1000 to 10000 | ≤ 100 | CN(c1ccc(Cl)cc1)c1ccc2c(c1)CCC[C@H]2CNc1cnccc1C(=O)O [Example 9, 3-({[(1R)-6-[(4-chlorophenyl)(methyl)amino]-1,2,3,4-tetrahydronaphthalen-1-yl]methyl}amino)pyridine-4-carboxylic acid] |
| 100 to 1000 | 100 to 1000 | O=C(O)c1ccncc1NC[C@@H]1CCCc2cc(Oc3ccccc3Cl)ccc21 [Example 67, 3-({[(1R)-6-(2-chlorophenoxy)-1,2,3,4-tetrahydronaphthalen-1-yl]methyl}amino)pyridine-4-carboxylic acid] |
| 100 to 1000 | ≤ 100 | CCN(c1ccccc1)c1ccc2c(c1)CCC[C@H]2CNc1cnccc1C(=O)O [Example 10, 3-({[(1R)-6-[ethyl(phenyl)amino]-1,2,3,4-tetrahydronaphthalen-1-yl]methyl}amino)pyridine-4-carboxylic acid] |
| 100 to 1000 | ≤ 100 | CN(c1ccccc1)c1ccc2c(c1)CCOC2CNc1cnccc1C(=O)O (centres unmarked) [Example 146, 3-[({6-[methyl(phenyl)amino]-3,4-dihydro-1H-2-benzopyran-1-yl}methyl)amino]pyridine-4-carboxylic acid] |
| 100 to 1000 | ≤ 100 | CC(C)c1ccc(N(C)c2ccc3c(c2)OCC[C@H]3CNc2cnccc2C(=O)O)nc1 [Example 199, 3-({[(4R)-7-{methyl[5-(propan-2-yl)pyridin-2-yl]amino}-3,4-dihydro-2H-1-benzopyran-4-yl]methyl}amino)pyridine-4-carboxylic acid] |
| 100 to 1000 | ≤ 100 | CN(c1ccc2c(c1)OCC[C@H]2CNc1cnccc1C(=O)O)c1ccc2occc2c1 [Example 136, 3-({[(4R)-7-[(1-benzofuran-5-yl)(methyl)amino]-3,4-dihydro-2H-1-benzopyran-4-yl]methyl}amino)pyridine-4-carboxylic acid] |
| 1000 to 10000 | 100 to 1000 | O=C(O)c1ccncc1NCC1CCCc2cc(N3CCc4ccccc43)ccc21 (centres unmarked) [Example 5, 3-({[6-(2,3-dihydro-1H-indol-1-yl)-1,2,3,4-tetrahydronaphthalen-1-yl]methyl}amino)pyridine-4-carboxylic acid] |
| 100 to 1000 | 1000 to 10000 | Cc1cc2c(cc1C)C(CNc1cnccc1C(=O)O)CCO2 (centres unmarked) [Example 93, 3-{[(6,7-dimethyl-3,4-dihydro-2H-1-benzopyran-4-yl)methyl]amino}pyridine-4-carboxylic acid] |
| 100 to 1000 | 100 to 1000 | O=C(O)c1ccncc1NC[C@@H]1CCOc2cc(-c3cccc(F)c3Cl)ccc21 [Example 44, 3-({[(4R)-7-(2-chloro-3-fluorophenyl)-3,4-dihydro-2H-1-benzopyran-4-yl]methyl}amino)pyridine-4-carboxylic acid] |
| 100 to 1000 | 100 to 1000 | O=C(O)c1ccncc1NC[C@@H]1CCOc2cc(Sc3cccc(F)c3)ccc21 [Example 53, 3-({[(4R)-7-[(3-fluorophenyl)sulfanyl]-3,4-dihydro-2H-1-benzopyran-4-yl]methyl}amino)pyridine-4-carboxylic acid] |
| 100 to 1000 | 100 to 1000 | COc1ccccc1N(C)c1ccc2c(c1)CCC[C@H]2CNc1cnccc1C(=O)O [Example 172, 3-({[(1R)-6-[(2-methoxyphenyl)(methyl)amino]-1,2,3,4-tetrahydronaphthalen-1-yl]methyl}amino)pyridine-4-carboxylic acid] |
| 100 to 1000 | 100 to 1000 | O=C(O)c1ccncc1NC[C@@H]1CCOc2cc(-c3cc(F)ccc3Cl)ccc21 [Example 45, 3-({[(4R)-7-(2-chloro-5-fluorophenyl)-3,4-dihydro-2H-1-benzopyran-4-yl]methyl}amino)pyridine-4-carboxylic acid] |
| – | ≤ 100 | C[C@@H](O)c1ccc(N(C)c2ccc3c(c2)CCC[C@H]3CNc2cnccc2C(=O)O)cc1 (single isomer, unassigned) [Example 168] |
| – | 1000 to 10000 | O=C(O)c1ccncc1NC[C@@H]1CCOc2cc(C3CCCCC3)ccc21 [Example 35, 3-({[(4R)-7-cyclohexyl-3,4-dihydro-2H-1-benzopyran-4-yl]methyl}amino)pyridine-4-carboxylic acid] |
| – | ≤ 100 | C[C@H](O)c1ccc(N(C)c2ccc3c(c2)CCC[C@H]3CNc2cnccc2C(=O)O)cc1 (single isomer, unassigned) [Example 169] |
| 1000 to 10000 | – | Cc1cccc(Sc2ccc3c(c2)CCC[C@@H]3CNc2cnccc2C(=O)O)c1 [Example 68, 3-({[(1S)-6-[(3-methylphenyl)sulfanyl]-1,2,3,4-tetrahydronaphthalen-1-yl]methyl}amino)pyridine-4-carboxylic acid] |
| 100 to 1000 | – | O=C(O)c1ccncc1NC[C@@H]1CCCc2cc(Sc3cccc(F)c3)ccc21 [Example 75, 3-({[(1R)-6-[(3-fluorophenyl)sulfanyl]-1,2,3,4-tetrahydronaphthalen-1-yl]methyl}amino)pyridine-4-carboxylic acid] |
| 100 to 1000 | – | COc1ccc2c(c1C)CCC[C@@H]2CNc1cnccc1C(=O)O [Example 98, 3-({[(1S)-6-methoxy-5-methyl-1,2,3,4-tetrahydronaphthalen-1-yl]methyl}amino)pyridine-4-carboxylic acid] |
| 1000 to 10000 | – | Cc1c(F)cccc1-c1ccc2c(c1)OCC[C@@H]2CNc1cnccc1C(=O)O [Example 41, 3-({[(4S)-7-(3-fluoro-2-methylphenyl)-3,4-dihydro-2H-1-benzopyran-4-yl]methyl}amino)pyridine-4-carboxylic acid] |
| 1000 to 10000 | – | O=C(O)c1ccncc1NC[C@H]1CCCc2cc(Sc3ccccc3F)ccc21 [Example 72, 3-({[(1S)-6-[(2-fluorophenyl)sulfanyl]-1,2,3,4-tetrahydronaphthalen-1-yl]methyl}amino)pyridine-4-carboxylic acid] |
| 1000 to 10000 | – | O=C(O)c1ccncc1NC[C@@H]1CCCc2cc(N3CCOc4ccccc43)ccc21 [Example 108, 3-({[(1R)-6-(3,4-dihydro-2H-1,4-benzoxazin-4-yl)-1,2,3,4-tetrahydronaphthalen-1-yl]methyl}amino)pyridine-4-carboxylic acid] |
| 100 to 1000 | – | CN(c1ccc(CC2CC2)cc1)c1ccc2c(c1)OCC[C@H]2CNc1cnccc1C(=O)O [Example 215, 3-({[(4R)-7-{[4-(cyclopropylmethyl)phenyl](methyl)amino}-3,4-dihydro-2H-1-benzopyran-4-yl]methyl}amino)pyridine-4-carboxylic acid] |
| 1000 to 10000 | – | Cc1ccccc1Sc1ccc2c(c1)CCC[C@@H]2CNc1cnccc1C(=O)O [Example 70, 3-({[(1S)-6-[(2-methylphenyl)sulfanyl]-1,2,3,4-tetrahydronaphthalen-1-yl]methyl}amino)pyridine-4-carboxylic acid] |
| 100 to 1000 | – | CN(c1ccc(C(=O)C2CC2)cc1)c1ccc2c(c1)OCC[C@H]2CNc1cnccc1C(=O)O [Example 216, 3-({[(4R)-7-[(4-cyclopropanecarbonylphenyl)(methyl)amino]-3,4-dihydro-2H-1-benzopyran-4-yl]methyl}amino)pyridine-4-carboxylic acid] |
| 100 to 1000 | – | COc1cc2c(cc1F)[C@@H](CNc1cnccc1C(=O)O)CCC2 [Example 96, 3-({[(1S)-7-fluoro-6-methoxy-1,2,3,4-tetrahydronaphthalen-1-yl]methyl}amino)pyridine-4-carboxylic acid] |
| 1000 to 10000 | – | Cc1cccc(S(=O)(=O)c2ccc3c(c2)CCC[C@@H]3CNc2cnccc2C(=O)O)c1 [Example 85, 3-({[(1S)-6-(3-methylbenzenesulfonyl)-1,2,3,4-tetrahydronaphthalen-1-yl]methyl}amino)pyridine-4-carboxylic acid] |
